Drawing on ChEMBL document CHEMBL1155773, “Effects of imipenem-cilastatin, ertapenem, piperacillin-tazobactam, and ceftriaxone treatments on persistence of intestinal colonization by extended-spectrum-beta-lactamase-producing Klebsiella pneumoniae strains in mice” (2007), this text covers Activity and MIC for two compounds.

Experiment [1] concerns Klebsiella pneumoniae. Briefly: Effect on extended-spectrum-beta-lactamase-producing Klebsiella pneumoniae P62 infected in sc dosed CF1 mouse with high-density bacterial colonization administered daily for 9 days assessed as promotion of persistent bacterial overgrowth by measuring stool bacterial count. The experiment is classed as functional, organism-based.
The subject of experiment [2] is Klebsiella pneumoniae. Briefly: Effect on extended-spectrum-beta-lactamase-producing Klebsiella pneumoniae P10045 infected in sc dosed CF1 mouse with high-density bacterial colonization administered daily for 9 days assessed as promotion of persistent bacterial overgrowth by measuring stool bacterial count. It is filed as functional, organism-based.
For experiment [3], the system named is Klebsiella pneumoniae. In words: Antibacterial activity against extended-spectrum-beta-lactamase-producing Klebsiella pneumoniae P10045 by broth dilution method. The experiment is classed as functional.
Experiment [4] has as its system Klebsiella pneumoniae. Briefly: Antibacterial activity against extended-spectrum-beta-lactamase-producing Klebsiella pneumoniae isolate. It is filed as functional.
Experiment [5] deals with Klebsiella pneumoniae. In words: Antibacterial activity against extended-spectrum-beta-lactamase-producing Klebsiella pneumoniae P62 by broth dilution method. It is filed as functional. Background: Dilution methods test growth across graded concentrations, often in twofold steps.
In experiment [6] the test system is Klebsiella pneumoniae. Briefly: Antibacterial activity against extended-spectrum-beta-lactamase-producing Klebsiella pneumoniae P62 infected in sc dosed CF1 mouse with high-density bacterial colonization administered daily for 9 days assessed as suppression of stool bacterial count. The experiment is classed as functional, organism-based.
Experiment [7] has as its system Klebsiella pneumoniae. Briefly: Antibacterial activity against extended-spectrum-beta-lactamase-producing Klebsiella pneumoniae P10045 infected in sc dosed CF1 mouse with high-density bacterial colonization administered daily for 9 days assessed as suppression of stool bacterial count. It is filed as functional, organism-based.

In brackets after ≈: the same amount, converted by molar mass. Activity calls are given as the source filed them.

Broadly, the MIC is the smallest concentration in the dilution series that meets the test's criterion for growth inhibition. The low end stands for a more susceptible organism, the high end for a less susceptible organism. In the case of `CO/N=C(\C(=O)N[C@@H]1C(=O)N2C(C(=O)O)=C(CSc3nc(=O)c(O)nn3C)CS[C@H]12)c1csc(N)n1` [CEFTRIAXONE], the result in experiment [1] and in experiment [2] was Active. The MIC in experiment [3] was 78 µg/mL (≈ 141 µM); in experiment [4], 4 µg/mL (≈ 7.21 µM); in experiment [5], 4 µg/mL (≈ 7.21 µM).

As for `C[C@@H](O)[C@H]1C(=O)N2C(C(=O)O)=C(S[C@@H]3CN[C@H](C(=O)Nc4cccc(C(=O)O)c4)C3)[C@H](C)[C@H]12` [ERTAPENEM], the outcome in experiment [6] and in experiment [7] was Active. In addition, the MIC in experiment [3] was 0.25 µg/mL (≈ 0.526 µM); in experiment [4], less than 0.25 µg/mL; in experiment [5], less than 0.25 µg/mL.
